Experimental data from patent EP4700024A1, “CYCLOPENTYLPYRAZOLAMINE DERIVATIVE AND USE THEREOF” (Chia Tai Tianqing Pharmaceutical Group Co., Ltd., priority 2023, dated 2024).

Each compound was assayed against CDK2/CycA2 kinase (Homo sapiens, UniProt P24941) (assay: Determination of inhibitory activity against CDK2/CycA2 kinase). Settings: CDK2/CycA2 10 µM ATP (kinase) IC50 (nM).
Type: biochemical
Protocol: 1.1 Determination of inhibitory activity against CDK2/CycA2 kinase
(§1) CDK2/CycA2 kinase solution (concentration: 0.078 ng/µL) was added to assay wells at 6 µL/well, and different compounds dissolved in DMSO were added to the assay wells separately using a nanoliter pipettor, such that the final concentrations of the compounds were 1000 nM to 0.244 nM. The wells were set in duplicate, and a control well was set. After a 30-min incubation of the above system, ATP (concentration: 50 µM or 5000 µM) was mixed with ULight-Myelin Basic Protein Peptide substrate (manufacturer: PerkinElmer, concentration: 0.25 µM) in a ratio of 1:1, and the mixture was added to the assay wells at 4 µL/well. The resultant mixture was left to react at room temperature for 2 h, and then 5 µL of EDTA was added to terminate the reaction, followed by the addition of 5 µL of a detection antibody (manufacturer: PerkinElmer, concentration: 8 nM). The mixture was incubated at room temperature for 1 h. The assay was performed using a PerkinElmer Envision multifunctional microplate reader (excitation: 320 nm, emission: 615 nm/665 nm), and IC50 was calculated by four-parameter fitting.

Row | IC50 | Structure (SMILES)
1 | < 10 nM | O=C(NC1CCC1)OC1CCC(c2cc(Nc3ccc4c(c3)CS(=O)(=O)C4)[nH]n2)C1 (centres unmarked) [Compound 1]
2 | < 10 nM | CC(C)(C)NC(=O)OC1CCC(c2cc(Nc3ccc4c(c3)CS(=O)(=O)C4)[nH]n2)C1 (centres unmarked) [Compound 4]
3 | 10 to 50 nM | CC(C)(CCO)NC(=O)OC1CCC(c2cc(Nc3ccc4c(c3)CS(=O)(=O)C4)[nH]n2)C1 (centres unmarked) [Compound 6]
4 | < 10 nM | O=C(NC12CC(C1)C2)OC1CCC(c2cc(Nc3ccc4c(c3)CS(=O)(=O)C4)[nH]n2)C1 (centres unmarked) [Compound 7]
5 | < 10 nM | CCNC(=O)OC1CCC(c2cc(Nc3ccc4c(c3)CS(=O)(=O)C4)[nH]n2)C1 (centres unmarked) [Compound 10]
6 | < 10 nM | CC(C)NC(=O)OC1CCC(c2cc(Nc3cc(F)c4c(c3)CS(=O)(=O)C4)[nH]n2)C1 (centres unmarked) [Compound 11]
7 | 10 to 50 nM | O=C(NCC(F)(F)F)OC1CCC(c2cc(Nc3ccc4c(c3)CS(=O)(=O)C4)[nH]n2)C1 (centres unmarked) [Compound 12]
8 | < 10 nM | O=C(NCC(F)F)OC1CCC(c2cc(Nc3ccc4c(c3)CS(=O)(=O)C4)[nH]n2)C1 (centres unmarked) [Compound 13]
9 | < 10 nM | CC(C)(C)NC(=O)OC1CCC(c2cc(Nc3ccc4c(c3)C[S+]([O-])C4)n[nH]2)C1 (centres unmarked) [Compound 14]
10 | < 10 nM | O=C(NC12CC(C1)C2)OC1CCC(c2cc(Nc3ccc4c(c3)C[S+]([O-])C4)n[nH]2)C1 (centres unmarked) [Compound 16]
11 | < 10 nM | CC1(C)CCN1C(=O)OC1CCC(c2cc(Nc3ccc4c(c3)CS(=O)(=O)C4)[nH]n2)C1 (centres unmarked) [Compound 17]
12 | < 10 nM | CC1CN(C)CCN1C(=O)OC1CCC(c2cc(Nc3ccc4c(c3)CS(=O)(=O)C4)[nH]n2)C1 (centres unmarked) [Compound 21]
13 | 10 to 50 nM | CC(C)NC(=O)OC1CCC(c2cc(Nc3ccc4c(c3)C[S+]([O-])C4)n[nH]2)C1 (centres unmarked) [Compound 22]
14 | 10 to 50 nM | CC1(NC(=O)OC2CCC(c3cc(Nc4ccc5c(c4)C[S+]([O-])C5)[nH]n3)C2)CC1 (centres unmarked) [Compound 25]
15 | < 10 nM | CC1(C)CCN1C(=O)OC1CCC(c2cc(Nc3ccc4c(c3)C[S+]([O-])C4)[nH]n2)C1 (centres unmarked) [Compound 26]
16 | < 10 nM | CC1(C)CCN1C(=O)OC1CCC(c2cc(Nc3ccc4c(c3)C[S+]([O-])C4)[nH]n2)C1 (centres unmarked) [Compound 29]
17 | 10 to 50 nM | CC1(C)CCN1C(=O)OC1CCC(c2cc(Nc3ccc4c(c3)C[S+]([O-])C4)[nH]n2)C1 (centres unmarked) [Compound 30]
18 | < 10 nM | CC1(NC(=O)OC2CCC(c3cc(Nc4ccc5c(c4)C[S+]([O-])C5)[nH]n3)C2)CC1 (centres unmarked) [Compound 31]

Same assay, conditions: read-out: CDK2/CycA2 10 µM ATP (kinase) IC50

Row | IC50 | Structure (SMILES)
19 | 10 to 50 nM | CC(C)NC(=O)OC1CCC(c2cc(Nc3ccc4c(c3)C[S+]([O-])C4)n[nH]2)C1 (centres unmarked) [Compound 2]
20 | < 10 nM | CC(NC(=O)OC1CCC(c2cc(Nc3ccc4c(c3)CS(=O)(=O)C4)[nH]n2)C1)C1CC1 (centres unmarked) [Compound 3]
21 | < 10 nM | C[C@H](NC(=O)O[C@@H]1CC[C@H](c2cc(Nc3ccc4c(c3)CS(=O)(=O)C4)[nH]n2)C1)C1CC1 [Compound 5]
22 | < 10 nM | CC1(C)CCN1C(=O)OC1CCC(c2cc(Nc3ccc4c(c3)CS(=O)(=O)C4)[nH]n2)C1 (centres unmarked) [Compound 18]

Each compound was assayed against CDK2 CycE1 kinase (Homo sapiens, UniProt P24941) (assay: Determination of inhibitory activity against CDK2 CycE1 kinase). Settings: 10 µM ATP (kinase).
Type: biochemical
Protocol: 1.2 Determination of inhibitory activity against CDK2 CycE1 kinase
as §1, with “CDK2 CycEl” for “CDK2/CycA2”, “0.015” for “0.078”, “300” for “1000”, “0.07” for “0.244”, “fitting. […] Table 1: Inhibitory activity of compound against CDK2 CycA2 and CDK2 CycEl kinases” for “fitting.”

Row | IC50 | Structure (SMILES)
23 | < 10 nM | O=C(NC1CCC1)OC1CCC(c2cc(Nc3ccc4c(c3)CS(=O)(=O)C4)[nH]n2)C1 (centres unmarked) [Compound 1]
24 | < 10 nM | CC(C)(C)NC(=O)OC1CCC(c2cc(Nc3ccc4c(c3)CS(=O)(=O)C4)[nH]n2)C1 (centres unmarked) [Compound 4]
25 | < 10 nM | CC(C)(CCO)NC(=O)OC1CCC(c2cc(Nc3ccc4c(c3)CS(=O)(=O)C4)[nH]n2)C1 (centres unmarked) [Compound 6]
26 | < 10 nM | O=C(NC12CC(C1)C2)OC1CCC(c2cc(Nc3ccc4c(c3)CS(=O)(=O)C4)[nH]n2)C1 (centres unmarked) [Compound 7]
27 | < 10 nM | CCNC(=O)OC1CCC(c2cc(Nc3ccc4c(c3)CS(=O)(=O)C4)[nH]n2)C1 (centres unmarked) [Compound 10]
28 | < 10 nM | CC(C)NC(=O)OC1CCC(c2cc(Nc3cc(F)c4c(c3)CS(=O)(=O)C4)[nH]n2)C1 (centres unmarked) [Compound 11]
29 | < 10 nM | O=C(NCC(F)(F)F)OC1CCC(c2cc(Nc3ccc4c(c3)CS(=O)(=O)C4)[nH]n2)C1 (centres unmarked) [Compound 12]
30 | < 10 nM | O=C(NCC(F)F)OC1CCC(c2cc(Nc3ccc4c(c3)CS(=O)(=O)C4)[nH]n2)C1 (centres unmarked) [Compound 13]
31 | < 10 nM | CC(C)(C)NC(=O)OC1CCC(c2cc(Nc3ccc4c(c3)C[S+]([O-])C4)n[nH]2)C1 (centres unmarked) [Compound 14]
32 | < 10 nM | CC(C)NC(=O)OC1CCC(c2cc(Nc3ccc4c(c3)CCS4(=O)=O)n[nH]2)C1 (centres unmarked) [Compound 15]
33 | < 10 nM | O=C(NC12CC(C1)C2)OC1CCC(c2cc(Nc3ccc4c(c3)C[S+]([O-])C4)n[nH]2)C1 (centres unmarked) [Compound 16]
34 | < 10 nM | CC1(C)CCN1C(=O)OC1CCC(c2cc(Nc3ccc4c(c3)CS(=O)(=O)C4)[nH]n2)C1 (centres unmarked) [Compound 17]
35 | 10 to 50 nM | CCNC(=O)OC1CCC(c2cc(Nc3ccc4c(c3)C[S+]([O-])C4)[nH]n2)C1 (centres unmarked) [Compound 19]
36 | 10 to 50 nM | CC1CN(C)CCN1C(=O)OC1CCC(c2cc(Nc3ccc4c(c3)C[S+]([O-])C4)[nH]n2)C1 (centres unmarked) [Compound 20]
37 | < 10 nM | CC1CN(C)CCN1C(=O)OC1CCC(c2cc(Nc3ccc4c(c3)CS(=O)(=O)C4)[nH]n2)C1 (centres unmarked) [Compound 21]
38 | < 10 nM | CC(C)NC(=O)OC1CCC(c2cc(Nc3ccc4c(c3)C[S+]([O-])C4)n[nH]2)C1 (centres unmarked) [Compound 22]
39 | 10 to 50 nM | O=C(NC1CC1)OC1CCC(c2cc(Nc3ccc4c(c3)C[S+]([O-])C4)[nH]n2)C1 (centres unmarked) [Compound 24]
40 | < 10 nM | CC1(NC(=O)OC2CCC(c3cc(Nc4ccc5c(c4)C[S+]([O-])C5)[nH]n3)C2)CC1 (centres unmarked) [Compound 25]
41 | < 10 nM | CC1(C)CCN1C(=O)OC1CCC(c2cc(Nc3ccc4c(c3)C[S+]([O-])C4)[nH]n2)C1 (centres unmarked) [Compound 26]
42 | < 10 nM | O=C(NC1CC1F)OC1CCC(c2cc(Nc3ccc4c(c3)C[S+]([O-])C4)[nH]n2)C1 (centres unmarked) [Compound 41]

Same assay, conditions: read-out: CDK2/CycE1 10 µM ATP (kinase) IC50

Row | IC50 | Structure (SMILES)
43 | < 10 nM | CC(C)NC(=O)OC1CCC(c2cc(Nc3ccc4c(c3)C[S+]([O-])C4)n[nH]2)C1 (centres unmarked) [Compound 2]
44 | < 10 nM | CC(NC(=O)OC1CCC(c2cc(Nc3ccc4c(c3)CS(=O)(=O)C4)[nH]n2)C1)C1CC1 (centres unmarked) [Compound 3]
45 | < 10 nM | C[C@H](NC(=O)O[C@@H]1CC[C@H](c2cc(Nc3ccc4c(c3)CS(=O)(=O)C4)[nH]n2)C1)C1CC1 [Compound 5]
46 | 10 to 50 nM | COCc1cc(Nc2cc([C@H]3CC[C@@H](OC(=O)NC(C)C)C3)n[nH]2)cc2c1C(C)S(=O)(=O)C2 (some centres unmarked) [Compound 8]
47 | < 10 nM | CC(C)NC(=O)OC1CCC(c2cc(Nc3ccc4c(c3)C[S+]([O-])C4)n[nH]2)C1 (centres unmarked) [Compound 23]
48 | < 10 nM | CC1(C)CCN1C(=O)OC1CCC(c2cc(Nc3ccc4c(c3)C[S+]([O-])C4)[nH]n2)C1 (centres unmarked) [Compound 29]
49 | < 10 nM | CC1(C)CCN1C(=O)OC1CCC(c2cc(Nc3ccc4c(c3)C[S+]([O-])C4)[nH]n2)C1 (centres unmarked) [Compound 30]
50 | < 10 nM | CC1(NC(=O)OC2CCC(c3cc(Nc4ccc5c(c4)C[S+]([O-])C5)[nH]n3)C2)CC1 (centres unmarked) [Compound 31]
51 | < 10 nM | CC1(NC(=O)OC2CCC(c3cc(Nc4ccc5c(c4)C[S+]([O-])C5)[nH]n3)C2)CC1 (centres unmarked) [Compound 32]
52 | < 10 nM | O=C(NC12CC(C1)C2)OC1CCC(c2cc(Nc3ccc4c(c3)C[S+]([O-])C4)n[nH]2)C1 (centres unmarked) [Compound 33]
53 | < 10 nM | O=C(NC12CC(C1)C2)OC1CCC(c2cc(Nc3ccc4c(c3)C[S+]([O-])C4)n[nH]2)C1 (centres unmarked) [Compound 34]
54 | < 10 nM | CC(C)(C)NC(=O)OC1CCC(c2cc(Nc3ccc4c(c3)C[S+]([O-])C4)n[nH]2)C1 (centres unmarked) [Compound 35]
55 | < 10 nM | CC(C)(C)NC(=O)OC1CCC(c2cc(Nc3ccc4c(c3)C[S+]([O-])C4)n[nH]2)C1 (centres unmarked) [Compound 36]
56 | 10 to 50 nM | CCNC(=O)OC1CCC(c2cc(Nc3ccc4c(c3)C[S+]([O-])C4)[nH]n2)C1 (centres unmarked) [Compound 37]
